Measured values published in the supplement of paper PMC5579334.
± gives the standard deviation of the averaged measurements.

Assays:
YST-1 [1] = assay: drug sensitivity score (DSS, CellTiter-Glo viability, 72 h) (DSS (dimensionless)); higher = more sensitive; extreme values may be limits of the assay
Method in brief: (§1)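 For this screen, 384-well plates were preprinted with each compound at five concentrations in 10-fold steps and seeded with MPNST cell lines or primary human Schwann cells at 750–1000 cells per well. Incubation lasted 72 h at 37 °C, 5% CO2, and CellTiter-Glo ATP luminescence, scaled between vehicle and positive-control wells and averaged over duplicates where available, served as viability. Logistic fits with four parameters were applied. Relative IC50 (censored at the top concentration) and drug sensitivity score derive from these fits, and percent inhibition is at the top concentration.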

HS-PSS [2] = assay: as above
Method in brief: as §1

[3] = system: HSC1 (primary human Schwann cells); assay: as above
Method in brief: as §1

S1507-2 [4] = assay: as above
Method in brief: as §1

[5] = system: HSC2 (primary human Schwann cells); assay: as above
Method in brief: as §1

S462 [6] = assay: as above
Method in brief: as §1

ST8814 [7] = assay: as above
Method in brief: as §1

HS-Sch-2 [8] = assay: as above
Method in brief: as §1

STS26T [9] = assay: as above
Method in brief: as §1

YST-1 [10] = assay: % inhibition of CellTiter-Glo viability at highest tested concentration (72 h), relative to DMSO and benzethonium chloride controls; higher = more inhibition
Method in brief: as §1

HS-PSS [11] = assay: as above
Method in brief: as §1

[12] = system: HSC1 (primary human Schwann cells); assay: as above
Method in brief: as §1

S1507-2 [13] = assay: as above
Method in brief: as §1

[14] = system: HSC2 (primary human Schwann cells); assay: as above
Method in brief: as §1

S462 [15] = assay: as above
Method in brief: as §1

ST8814 [16] = assay: as above
Method in brief: as §1

HS-Sch-2 [17] = assay: as above
Method in brief: as §1

STS26T [18] = assay: as above
Method in brief: as §1

HS-PSS [19] = assay: drug sensitivity score (DSS, CellTox-Green cytotoxicity, 72 h) (DSS (dimensionless)); higher = more cytotoxic; extreme values may be limits of the assay
Method in brief: (§2)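 MPNST cell lines and primary human Schwann cells were grown for 72 h at 37 °C in 384-well plates containing five 10-fold compound dilutions. CellTox-Green, added before seeding at a final 1:1000 dilution, gave fluorescence from DNA released by disrupted cells, and signals were scaled to vehicle and positive-control wells. Curves were fitted with a four-parameter logistic model. Drug sensitivity score and relative IC50 come from these fits, with IC50 censored at the top concentration.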

[20] = system: HSC1 (primary human Schwann cells); assay: as above
Method in brief: as §2

S1507-2 [21] = assay: as above
Method in brief: as §2

[22] = system: HSC2 (primary human Schwann cells); assay: as above
Method in brief: as §2

ST8814 [23] = assay: as above
Method in brief: as §2

STS26T [24] = assay: as above
Method in brief: as §2

SMILES | drug sensitivity score (YST-1 [1]) | drug sensitivity score (HS-PSS [2]) | drug sensitivity score [3] | drug sensitivity score (S1507-2 [4]) | drug sensitivity score [5] | drug sensitivity score (S462 [6]) | drug sensitivity score (ST8814 [7]) | drug sensitivity score (HS-Sch-2 [8]) | drug sensitivity score (STS26T [9]) | % inhibition (YST-1 [10]) | % inhibition (HS-PSS [11]) | % inhibition [12] | % inhibition (S1507-2 [13]) | % inhibition [14] | % inhibition (S462 [15]) | % inhibition (ST8814 [16]) | % inhibition (HS-Sch-2 [17]) | % inhibition (STS26T [18]) | drug sensitivity score (HS-PSS [19]) | drug sensitivity score [20] | drug sensitivity score (S1507-2 [21]) | drug sensitivity score [22] | drug sensitivity score (ST8814 [23]) | drug sensitivity score (STS26T [24])
Nc1ccccc1NC(=O)c1ccc(CNc2nccc(-c3cccnc3)n2)cc1 [Mocetinostat] (max concentration tested 10000 nM) | 15 | 6.61 | 9.63 | 8.06 ± 0.65 | 10.5 | 15.4 ± 0.54 | 8.59 | 9.89 | 8.68 | 100% | 88% | 83.9% | 95.338 ± 0.088% | 87.2% | 94.19 ± 0.4% | 93.5% | 101% | 87.5% | 4.26 | 4.7 | 5.36 ± 2.5 | 6.39 | 5.01 | 6.23
N#CCNC(=O)c1ccc(-c2ccnc(Nc3ccc(N4CCOCC4)cc3)n2)cc1 [Momelotinib] (max concentration tested 10000 nM) | 5.7 | 3.21 | 7.64 | 3.09 ± 0.61 | 8.06 | 4.7 ± 0.25 | 3.16 | 5.45 | 3.24 | 55.4% | 49.2% | 76.8% | 67.1 ± 11% | 81.2% | 74.7 ± 4.7% | 41.6% | 60.3% | 58.8% | 0 | 0.946 | 0.683 ± 0.4 | 1.87 | 0 | 0
CC1(C)CNc2cc(NC(=O)c3cccnc3NCc3ccncc3)ccc21 [Motesanib] (max concentration tested 10000 nM) | 0.25 | 0 | 0 | 0 | 0.232 | 0 | 0 | 0 | 0 | 15% | 5.39% | 9.4% | 6.17 ± 1.9% | 15.5% | 4.64 ± 6.4% | -4.55% | 7.18% | 4.89% | 0 | 0 | 0.104 ± 0.15 | 0 | 0 | 0
CCN1CCN(c2ccc(Nc3cc(N(C)C(=O)Nc4c(Cl)c(OC)cc(OC)c4Cl)ncn3)cc2)CC1 [NVP-BGJ398] (max concentration tested 1000 nM) | 0 | 0 | 0 | 0.00445 ± 0.0063 | 0 | 0 | 0.135 | 0 | 0 | 2.47% | 9.97% | 4.11% | 6.59 ± 6.9% | 5.81% | 0.872 ± 0.61% | 14.3% | 0.34% | -2.71% | 0 | 0 | 0.143 ± 0.2 | 0 | 0 | 0
CC1(C)CCC(c2ccc(Cl)cc2)=C(CN2CCN(c3ccc(C(=O)NS(=O)(=O)c4ccc(N[C@H](CCN5CCOCC5)CSc5ccccc5)c(S(=O)(=O)C(F)(F)F)c4)cc3)CC2)C1 [Navitoclax] (max concentration tested 10000 nM) | 4.22 | 0 | 2.32 | 6.14 ± 0.43 | 5.16 | 0.978 ± 0.8 | 0.561 | 3.94 | 0.0007 | 34.2% | 3.02% | 23.8% | 47.8 ± 0.54% | 53.1% | 20.7 ± 5.9% | 24.4% | 32.7% | 11.3% | 0 | 5.42 | 16 ± 1.1 | 11.8 | 5.52 | 3.15
COc1nc(N)nc2c1ncn2[C@@H]1O[C@H](CO)[C@@H](O)[C@@H]1O [Nelarabine] (max concentration tested 10000 nM) | 0 | 0 | 0 | 1.62 ± 2.3 | 0 | 0 | 0 | 0 | 0 | -10.9% | -6.14% | 1.53% | 7.84 ± 7.8% | 4.25% | 8.35 ± 0.2% | -1.03% | 6.44% | 6.48% | 0 | 0 | 3.71 ± 5.2 | 0.0142 | 0 | 0
CCOc1cc2ncc(C#N)c(Nc3ccc(OCc4ccccn4)c(Cl)c3)c2cc1NC(=O)/C=C/CN(C)C [Neratinib] (max concentration tested 1000 nM) | 2.34 | 6.05 | 4.77 | 4 ± 1.6 | 5.85 | 5.12 ± 0.93 | 3.74 | 5.51 | 3.09 | 46.7% | 65.7% | 70.6% | 49.1 ± 15% | 75.8% | 64.8 ± 7.9% | 40.5% | 65.3% | 38.6% | 0 | 0 | 0 | 0 | 0 | 0
Cc1cn(-c2cc(NC(=O)c3ccc(C)c(Nc4nccc(-c5cccnc5)n4)c3)cc(C(F)(F)F)c2)cn1 [Nilotinib] (max concentration tested 10000 nM) | 1.13 | 1.65 | 0 | 0 | 0 | 0 | 0 | 3.88 | 0 | 20.6% | 23.5% | 0.687% | 2.99 ± 0.13% | 2.6% | -3.63 ± 4.4% | -12.2% | 15.4% | -1.55% | 0 | 0 | 0 | 0.117 | 0 | 0
CC1(C)NC(=O)N(c2ccc([N+](=O)[O-])c(C(F)(F)F)c2)C1=O [Nilutamide] (max concentration tested 10000 nM) | 0 | 0 | 0.162 | 0 | 0 | 0 | 0 | 0.51 | 0 | -2.31% | 8.31% | 9.41% | 7.48 ± 3.5% | 9.17% | 6.29 ± 2.4% | -1.67% | 18.2% | 7.4% | 0 | 0 | 0 | 0 | 0 | 0
COC(=O)c1ccc2c(c1)NC(=O)/C2=C(\Nc1ccc(N(C)C(=O)CN2CCN(C)CC2)cc1)c1ccccc1 [Nintedanib] (max concentration tested 10000 nM) | 3.79 | 1.83 | 0 | 0 | 0 | 0 | 0 | 2.94 | 0 | 39.7% | 45.7% | 0.553% | -3.03 ± 4% | -4.16% | -7.48 ± 1.2% | 2.22% | 63.5% | 2.06% | 0.43 | 0 | 0 | 0 | 0 | 0
COc1ccc(C2=N[C@@H](c3ccc(Cl)cc3)[C@@H](c3ccc(Cl)cc3)N2C(=O)N2CCNC(=O)C2)c(OC(C)C)c1 [Nutlin-3] (max concentration tested 10000 nM) | 9.36 | 1.69 | 5.97 | 0.283 ± 0.4 | 7.69 | 0 | 4.66 | 0 | 0.0084 | 94.8% | 24.9% | 62.4% | 7.98 ± 12% | 71.8% | 5.05 ± 4.8% | 59.7% | 1.38% | 12.2% | 0 | 0 | 1.97 ± 2.8 | 0 | 0.0128 | 0
COc1cccc2cc(-c3nc([C@H]4CC[C@H](C(=O)O)CC4)n4ncnc(N)c34)[nH]c12 [OSI-027] (max concentration tested 10000 nM) | 9.46 | 0.84 | 10.7 | 8.32 ± 1 | 8.56 | 7.41 ± 0.52 | 5.6 | 2.33 | 4.45 | 78% | 26.6% | 84.8% | 64.4 ± 4.5% | 80.9% | 58.2 ± 2.5% | 53% | 49.1% | 53.1% | 0 | 0 | 2.04 ± 1.4 | 0 | 0 | 0
COC1=CC(c2cc3ccccc3[nH]2)=N/C1=C\c1[nH]c(C)cc1C [Obatoclax] (max concentration tested 10000 nM) | 2.23 | 2.94 | 8.07 | 7.89 ± 1.2 | 8.2 | 7.25 ± 0.51 | 5.7 | 2.53 | 5.87 | 25.6% | 39.5% | 80.1% | 95.5 ± 2% | 81.8% | 89.3 ± 2.9% | 93.7% | 31.2% | 81.5% | 0 | 4.21 | 5.25 ± 0.56 | 2.43 | 4.99 | 3.1
